Assays:
C6 glioma cells [1] = test: Microscopy of treated cells (cell size, refractile bodies, electron microscopy)
U87 = test: 48 hour MTT assay, U87; conditions: U87 (Brain), 25 μM
HS578T = test: 48 hour MTT assay, HS578T; conditions: HS578T (Breast), 25 μM
C6 cells = test: Lipid incorporation assay; assay type: cell-based; conditions: 25 μM, 14C-labeled arachidonic acid, 48 hours; for neutral lipids, increase above basal levels: FIG. 3
J82 = test: 48 hour MTT assay, J82; conditions: J82 (Bladder), 25 μM
[2] = test system: human cell lines derived from a variety of cancer types (brain, breast, bladder, lung, and prostate); test: 48 hour MTT assay, mean over the human cancer cell lines; conditions: 25 μM, mean of the ten lines of Table 1
U373 = test: 48 hour MTT assay, U373; conditions: U373 (Brain), 25 μM
Du145 = test: 48 hour MTT assay, Du145; conditions: Du145 (Prostate), 25 μM
PC3 = test: 48 hour MTT assay, PC3; conditions: PC3 (Prostate), 25 μM
C6 glioma cells [3] = test: Co-incubation with a CB1 antagonist, cell proliferation; assay type: cell-based; conditions: 3.2 μM of a specific CB1 antagonist
WI38 cells = test: Phase microscopy for refractile bodies, WI38; assay type: cell-based, rat; conditions: 48 hours, same dosage
C6 glioma cells [4] = test: Viability by trypan blue exclusion
Protein kinase C (PKC) = Protein kinase C (PKC) assay; assay type: cell-based; conditions: C6 cells, 25 μM, for one hour
Description: Protein kinase C (PKC) assay. Cells were transferred into MEM media (0.5% serum) and cultured overnight. The next day, cells were treated with either DMSO or 25 μM ajulemic acid for the specified incubation time, after which the plates were trypsinized. 5×10^6 trypsinized cells were assayed for PKC activity using a kit (Calbiochem, cat. no. 53984).

[5] = test system: human glioma cell line U87 injected subcutaneously in nude mice; test: In vivo subcutaneous model; conditions: 0.1 mg/kg thrice weekly, FIG. 4
Description: In vivo subcutaneous model. 10^6 U87 cells were injected into the right flank muscle of male nu/nu BALBc mice (Charles River). Two days after inoculation, the mice received either 0.1 mg/kg ajulemic acid in 0.05 ml of safflower oil or 0.05 ml safflower oil by oral administration. Thereafter, identical dosings were performed on each Monday, Wednesday, and Friday. When visible tumors appeared, the size of the tumors were estimated by averaging the values of two roughly perpendicular diameters measurements. Visible tumors were measured on the days of drug administration.

tumor cells = test: Stereospecificity of inhibition of cell proliferation (D-isomer vs L-isomer); assay type: cell-based; conditions: 25 μM dose, FIG. 2, p<0.001

Structure (SMILES): CCCCCc1cc(O)c2c(c1)OC(C)(C)[C@@H]1CC=C(C(=O)O)C[C@@H]21 [THC-11-oic acid]
- refractile bodies noted (in words) (C6 glioma cells [1]; C6 glioma cells, 25 μM, 48 hours): no refractile bodies were noted
- Percent inhibition of human cancer cell line growth (U87): 5 ± 1%
- Percent inhibition of human cancer cell line growth (HS578T): 2 ± 1%
- neutral lipids, increase above basal levels (C6 cells): significant increase above basal levels was only noted for ajulemic acid
- Percent inhibition of human cancer cell line growth (J82): 1 ± 1%
- inhibition levels (mean±SD) over the human cell lines [2]: 13.1±18.5%
- Percent inhibition of human cancer cell line growth (U373): 0%
- Percent inhibition of human cancer cell line growth (Du145): 7 ± 3%
- Percent inhibition of human cancer cell line growth (PC3): 1 ± 1%

Structure (SMILES): CCCCCc1cc(O)c2c(c1)OC(C)(C)[C@@H]1CCC(C)=C[C@@H]21 [Δ^9-THC, tetrahydrocannabinol]
- neutral lipids, increase above basal levels (C6 cells): significant increase above basal levels was only noted for ajulemic acid
- change in potency on co-incubation with CB1 antagonist (C6 glioma cells [3]): 150%

Structure (SMILES): CCCCCCC(C)(C)c1cc(O)c2c(c1)OC(C)(C)[C@@H]1CC=C(C(=O)O)C[C@@H]21 [ajulemic acid, 1′,1′-dimethylheptyl-Δ^8-THC-11-oic acid]
- cell size (C6 glioma cells [1]; after 48 hours of exposure): marked increase in cell size
- appearance under electron microscopy (C6 glioma cells [1]; treated cells): neither apoptotic nor necrotic
- refractile bodies noted (in words) (WI38 cells): no refractile bodies were noted
- content of tri- and di-glyceride versus controls (C6 cells): over three-fold greater than in controls
- neutral lipids, increase above basal levels (C6 cells): significant increase above basal levels
- viability rate (C6 glioma cells [4]): > 95%
- change in potency on co-incubation with CB1 antagonist (C6 glioma cells [3]): slight potentiation
- PKC activity versus control (Protein kinase C (PKC)): approximately two-fold above that of control
- appearance and size of tumors (in words) [5]: delay in both the appearance and size of tumors

Structure (SMILES): CCCCCCC(C)(C)c1cc(O)c2c(c1)OC(C)(C)[C@@H]1CC=C(C(=O)O)C[C@@H]21 (single isomer, unassigned) [D-isomer of ajulemic acid]
- potency of D-isomer compared to the L-isomer of ajulemic acid (tumor cells): marked decrease in the potency
